Test results reported in patent US5410031A, “Nucleoside cotransporter protein cDNA” (The Regents of the University of California Office of …, priority 1992, dated 1995).

Legend:
[1] = test system: SNST1c (expressed Na+/nucleoside cotransporter); experiment: Inhibition of [3H]uridine / radiolabeled nucleoside uptake in oocytes expressing SNST1c; assay type: cell-based, rabbit; settings: for inhibition of [3H]uridine transport by SNST1c: 1 mM nucleoside, 0.6 μM [3H]uridine, Na+ containing buffer (FIG. 4B)
Procedure: (§1) Measurements were made of [^3 H] uridine uptake in oocytes expressing SNST1c (FIG. 4A and 4B). Uptakes were measured over 5 min in a buffer containing either 100 mM NaCl, choline chloride or LiCl as described by Coady et al., Arch. Biochem. Biophys. 283:130-134 (1990), incorporated by reference herein. [All of the solutions contained 2 mM KCL, 1 mM MgCl2, 1 mM CaCl2, 10 mM HEPES/Tris, pH 7.5 and either 100 mM NaCl (Na^+ transport buffer) or 100 mM choline-Cl (choline transport buffer). The uptake solutions contained radiolabeled substrate while the wash solutions contained nonradioactive substrate. Oocytes were injected with water as a control, or SNST1c cRNA (50 ng). Oocytes were preincubated for 30 min in substrate-free choline transport buffer when uptakes in Na^+ and choline were to be compared. Transport of substrate was assayed by placing 4-6 oocytes in 0.5 ml of radioactive uptake solution, preceded by a 30 min preincubation in a Na^+ -free (100 mM choline-Cl) solution when Na^+ -dependent transport was to be measured. Transport was stopped by washing the oocytes five times with 4 ml of ice-cold choline solution containing excess unlabeled substrate. The oocytes were individually dissolved in 1.0 ml of 10% SDS and assayed for radioactivity. All data are expressed as mean ±SD. FIG. 4A indicates cation dependence of 1 μM [^3 H]uridine uptake in oocytes expressing SNST1c 4 days post-injection. In addition, inhibition of 0.6 μM [^3 H] uridine uptake in oocytes by 1 mM nucleosides was determined (FIG. 4B). Uptakes were measured in Na^+ containing buffer (Coady et al., supra) Oocytes were injected with water as a control, or SNST1c cRNA (50 ng) .
Uptake of radiolabeled nucleosides into Xenopus oocytes was measured in the presence or absence of Na^+ as described above in Example 1, and in the presence and absence of 1 mM phloridzin (Sigma, St. Louis, Mo.). […]

[2] = test system: SNST1c (chimeric Na+/nucleoside cotransporter SNST1); experiment: Uptake of radiolabelled substrates in Xenopus oocytes expressing SNST1c; assay type: cell-based, rabbit; settings: for transport of radiolabelled substrate by SNST1c: Xenopus oocytes injected with SNST1c RNA
Procedure: (§2) Oocyte injections. Xenopus oocytes were dissected and injected, and transport was measured as described below. Stage V and VI oocytes (Dumont, J. Morphol. 136:153-180 (1972)) from Xenopus laevis (Xenopus One, Ann Arbor, Mich.) were dissected and defolliculated as described by Hediger et al., Proc. Natl. Acad. Sci. USA 84:2634-2637 (1987) and Coady et al., Arch. Biochem. Biophys. 265:73-81 (1990), both of which are incorporated by reference herein. Briefly, oocytes were hand-dissected from ovarian tissue of adult female Xenopus laevis. Individual oocytes were obtained by gentle agitation in Barth's solution (Silbernagl, Physiol. Rev. 68:912-1007 (1988)) 1.0% collagenase (to remove follicular cells) and 0.1% trypsin inhibitor for 60 min followed by a 30 to 60 min incubation in 100 mM K2 HP04, pH 6.5, 0.1% BSA (modified from Dumont, J. Morphol. 136:153-179 (1972)). Oocytes were maintained in Barth's solution at 18° C. After 16 to 24 hr, the healthy oocytes were injected with 50 nl of water or mRNA (0.2 to 1 mg/ml) and incubated in Barth's solution with gentamicin at 18° C. for another 3 to 8 days.
(§3) Na^+ /nucleoside transporter activity was assayed by measuring the Na^+ -dependent uptake by the chimeric construct, SNST1c. […] Because of the sequence similarity to SGLT1, it was hypothesized that the transport would be Na^+ -dependent. Therefore, the uptake of ^22 Na^+ in the presence of potential substrates was monitored.
as §1

[3] = test system: SNST1c (chimeric Na+/nucleoside cotransporter SNST1); experiment: 22Na+ uptake in the presence of potential substrates in oocytes expressing SNST1c; assay type: cell-based, rabbit; settings: SNST1c-injected oocytes
Procedure: as §2, §3, §1

[4] = test system: Na+/glucose cotransporter protein; settings: cited from earlier work
[5] = test system: Na+/nucleoside cotransport in the kidney brush border; settings: Lee et al. 1990; cited from earlier work
[6] = test system: Na+/glucose cotransporter SGLT1; settings: SGLT1-injected oocytes
Procedure: Xenopus oocytes were dissected and injected, and transport was measured as described below. […] Briefly, oocytes were hand-dissected from ovarian tissue of adult female Xenopus laevis. […] Oocytes were maintained in Barth's solution at 18° C. After 16 to 24 hr, the healthy oocytes were injected with 50 nl of water or mRNA (0.2 to 1 mg/ml) and incubated in Barth's solution with gentamicin at 18° C. for another 3 to 8 days.
[All of the solutions contained 2 mM KCL, 1 mM MgCl2, 1 mM CaCl2, 10 mM HEPES/Tris, pH 7.5 and either 100 mM NaCl (Na^+ transport buffer) or 100 mM choline-Cl (choline transport buffer). The uptake solutions contained radiolabeled substrate while the wash solutions contained nonradioactive substrate. Oocytes were injected with water as a control, or SNST1c cRNA (50 ng). […] Transport of substrate was assayed by placing 4-6 oocytes in 0.5 ml of radioactive uptake solution, preceded by a 30 min preincubation in a Na^+ -free (100 mM choline-Cl) solution when Na^+ -dependent transport was to be measured. […] The oocytes were individually dissolved in 1.0 ml of 10% SDS and assayed for radioactivity. All data are expressed as mean ±SD. […] Uptakes were measured in Na^+ containing buffer (Coady et al., supra) Oocytes were injected with water as a control, or SNST1c cRNA (50 ng) .

[7] = test system: oocyte transporter (Na+/nucleoside cotransport in the oocyte membrane); experiment: Inhibition of endogenous Na+/nucleoside cotransport in the oocyte membrane; assay type: cell-based, Xenopus laevis; settings: endogenous transport of the oocyte membrane
Procedure: as §1, with “Transport was stopped by washing the oocytes five times with 4 ml of ice-cold choline solution containing excess unlabeled substrate.” left out, “FIG. 4A indicates cation dependence of 1 μM [^3 H]uridine uptake in oocytes expressing SNST1c 4 days post-injection. In addition, inhibition of 0.6 μM [^3 H] uridine uptake in oocytes by 1 mM nucleosides was determined (FIG. 4B).” left out

[8] = test system: SNST1c (chimeric Na+/nucleoside cotransporter SNST1); experiment: Uptake of radiolabelled substrates in Xenopus oocytes expressing SNST1c; assay type: cell-based, rabbit; settings: oocytes printed as SGLT1c, n=6 oocytes

O=c1ccn([C@H]2C[C@H](O)[C@@H](CO)O2)c(=O)[nH]1 [2-deoxyuridine]
inhibition of [3H]uridine transport by SNST1c [1]: inhibited

Nc1ccn([C@@H]2O[C@H](CO)[C@@H](O)[C@H]2O)c(=O)n1 [cytidine]
inhibition of [3H]uridine transport by SNST1c [1]: inhibited

O=C(O)CCCC[C@@H]1SC[C@@H]2NC(=O)N[C@@H]21 [biotin]
transport of radiolabelled substrate by SNST1c [2]: none of these was transported

CC(O)C(=O)O (stereo not shown) [lactate]
transport of radiolabelled substrate by SNST1c [2]: none of these was transported

Cc1ncc(C[n+]2csc(CCO)c2C)c(N)n1 [thiamine]
signal of 22Na+ uptake in the presence of potential substrate [3]: no signals

CNC(C)(C)C(=O)O [methyl-aminoisobutyric acid]
transport of radiolabelled substrate by SNST1c [2]: none of these was transported

C[N+](C)(C)CC(=O)O [betaine]
signal of 22Na+ uptake in the presence of potential substrate [3]: no signals

C[C@H](CCC(=O)O)[C@H]1CC[C@H]2[C@@H]3[C@H](O)C[C@@H]4C[C@H](O)CC[C@]4(C)[C@H]3C[C@H](O)[C@]12C [cholate]
signal of 22Na+ uptake in the presence of potential substrate [3]: no signals

O=C(CCc1ccc(O)cc1)c1c(O)cc(O)cc1O[C@@H]1O[C@H](CO)[C@@H](O)[C@H](O)[C@H]1O [Phloridzin]
inhibition of the expressed Na+/nucleoside cotransporter ([1]; 1 mM phloridzin, n=2, Xenopus oocytes): 87% | IC50 ([4]; mammalian intestine and kidney, competitive inhibition, read-out: concentration for fifty percent inhibition of sodium dependent sugar transport): 5 µM | inhibition of Na+/nucleoside cotransport in the kidney brush border [5]: inhibits

O[C@H]1[C@H](O)[C@@H](O)[C@H](O)[C@@H](O)[C@H]1O [myoinositol]
signal of 22Na+ uptake in the presence of potential substrate [3]: no signals

3-O-methylglucose
transport of radiolabelled substrate by SNST1c [2]: none of these was transported

Nc1ncnc2c1ncn2[C@@H]1O[C@H](CO)[C@@H](O)[C@H]1O [adenosine]
inhibition of [3H]uridine transport by SNST1c [1]: inhibited

O=c1ccn([C@@H]2O[C@H](CO)[C@@H](O)[C@H]2O)c(=O)[nH]1 [uridine]
3H-uridine uptake ([2]; SNST1c-injected oocytes, n=5 oocytes): 722±108 fmol ^3 H-uridine/oocyte/hr | transport of radiolabelled substrate by SNST1c [2]: transported | inhibition of [3H]uridine transport by SNST1c [1]: inhibited | 3H-uridine uptake ([6]; n=5 oocytes): 309±78 fmol ^3 H-uridine/oocyte/hr

O=C(O)CCC(=O)O [succinate]
transport of radiolabelled substrate by SNST1c [2]: none of these was transported

C[C@H](N)C(=O)O [alanine]
transport of radiolabelled substrate by SNST1c [2]: none of these was transported

O=C(CCc1ccc(O)cc1)c1c(O)cc(O[C@@H]2O[C@H](CO)[C@@H](O)[C@H](O)[C@H]2O)cc1O [4' glycoside]
activity as inhibitor of glucose transport ([4]; Diedrich 1990): inactive

NCCCC[C@H](N)C(=O)O [lysine]
transport of radiolabelled substrate by SNST1c [2]: none of these was transported

N[C@@H](Cc1ccccc1)C(=O)O [phenylalanine]
transport of radiolabelled substrate by SNST1c [2]: none of these was transported

O=C(O)[C@@H]1CCCN1 [proline]
transport of radiolabelled substrate by SNST1c [2]: none of these was transported

Nc1nc2c(ncn2[C@@H]2O[C@H](CO)[C@@H](O)[C@H]2O)c(=O)[nH]1 [guanosine]
inhibition of [3H]uridine transport by SNST1c [1]: inhibited

Nc1ccn([C@H]2CC[C@@H](CO)O2)c(=O)n1 [dideoxycytidine]
inhibition of the oocyte Na+/nucleoside transporter [7]: did not inhibit

CO[C@H]1O[C@H](CO)[C@@H](O)[C@H](O)[C@H]1O [αMDG, α-methyl-D-glucopyranose]
transport of radiolabelled substrate by SNST1c [2]: none of these was transported | signal of 22Na+ uptake in the presence of potential substrate [3]: no signals | 14C-αMDG uptake ([6]; n=6 oocytes): 70±19 pmol ^14 C-αMDG/oocyte/hr | 14C-αMDG uptake [8]: 0.5±0.1 pmol ^14 C-αMDG/oocyte/hr

NCCS(=O)(=O)O [taurine]
transport of radiolabelled substrate by SNST1c [2]: none of these was transported
